# Columns and labels:
# Experiment in all cases: relative viability (nuclei count vs DMSO), 5 days (fraction); higher = more cells survive
# [1] = compound: O=C(/C=C/c1cccnc1)NCCCCC1CCN(C(=O)c2ccccc2)CC1 [Daporinad] + CS(=O)(=O)CCNCc1ccc(-c2ccc3ncnc(Nc4ccc(OCc5cccc(F)c5)c(Cl)c4)c3c2)o1 [Lapatinib] (partner 2 µM)
# Procedure, shortened: (§1)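 Nuclei were stained with Hoechst during a one-step fixation (final 0.05% Triton X-100, 1% formaldehyde, 1 ug/ml Hoechst) carried out 5 days after dosing, then counted on 4× images. The cells, lung cancer lines in 1536-well plates, had been dosed by pin tool the day after seeding with one drug alone or a fixed anchor-drug dose plus five library-drug doses (not always all listed) in √10 steps. Relative viability is the nuclei count in treated wells divided by that in vehicle wells, and each value is the median of duplicate plates.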
# [2] = compound: COc1cc(Nc2ncc(F)c(Nc3ccc4c(n3)NC(=O)C(C)(C)O4)n2)cc(OC)c1OC [R406] + N=C(N)NC(=N)NCCc1ccccc1 [Phenformin] (partner 250 µM)
# Procedure, shortened: as §1
# [3] = compound: COc1cc(Nc2ncc(F)c(Nc3ccc4c(n3)NC(=O)C(C)(C)O4)n2)cc(OC)c1OC [R406] + Cc1cc(Nc2cc(N3CCN(C)CC3)nc(Sc3ccc(NC(=O)C4CC4)cc3)n2)n[nH]1 [Tozasertib] (partner 0.1 µM)
# Procedure, shortened: as §1
# [4] = compound: O=C(/C=C/c1cccnc1)NCCCCC1CCN(C(=O)c2ccccc2)CC1 [Daporinad] + CC(C)C[C@H](NC(=O)[C@H](Cc1ccccc1)NC(=O)c1cnccn1)B(O)O [Bortezomib] (partner 0.002 µM)
# Procedure, shortened: as §1
Cell Line,relative viability ([1]; first compound 0.0005 µM),relative viability ([1]; first compound 0.001581 µM),relative viability ([1]; first compound 0.005 µM),relative viability ([1]; first compound 0.01581 µM),relative viability ([2]; first compound 0.08 µM),relative viability ([2]; first compound 0.253 µM),relative viability ([2]; first compound 0.8 µM),relative viability ([2]; first compound 2.53 µM),relative viability ([2]; first compound 8 µM),relative viability ([3]; first compound 0.08 µM),relative viability ([3]; first compound 0.253 µM),relative viability ([3]; first compound 0.8 µM),relative viability ([3]; first compound 2.53 µM),relative viability ([3]; first compound 8 µM),relative viability ([4]; first compound 0.0005 µM),relative viability ([4]; first compound 0.001581 µM),relative viability ([4]; first compound 0.005 µM),relative viability ([4]; first compound 0.01581 µM)
201T,0.957,1.05,1.02,1.04,0.416,0.483,0.431,0.367,0.351,1.02,1,0.986,0.939,0.523,1.08,1.11,1.07,1.11
A549,0.973,1.05,0.938,0.607,0.142,0.21,0.122,0.155,0.0767,,,,,,,,,
A-427,1.05,1.12,0.962,0.863,0.382,0.335,0.316,0.171,0.134,0.254,0.223,0.188,0.185,0.169,0.952,1.02,0.974,0.784
ABC-1,1.14,0.952,1.24,0.86,0.227,0.225,0.236,0.197,0.201,0.167,0.16,0.162,0.158,0.14,0.265,0.32,0.312,0.309
BEN,0.646,0.688,0.858,1.11,0.267,0.283,0.256,0.26,0.249,0.522,0.478,0.499,0.569,0.543,0.805,0.796,1.04,1.12
CAL-12T,0.599,,0.722,0.413,0.57,0.667,0.668,0.353,0.14,0.312,0.366,0.324,0.255,0.194,0.925,,0.817,0.392
COR-L23,0.969,0.993,0.92,0.403,0.416,0.456,0.501,0.379,0.261,0.173,0.218,0.164,0.15,0.113,1.01,0.973,0.753,0.212
COR-L 105,0.371,0.371,0.385,0.442,0.495,0.569,0.602,0.366,0.224,0.344,0.325,0.439,0.237,0.399,0.827,0.815,0.781,0.753
Calu-6,1.06,0.959,0.863,0.413,,,,,,,,,,,0.957,1.04,0.848,0.352
ChaGo-K-1,,,,,0.491,0.508,0.657,0.42,0.403,0.224,0.203,0.251,0.218,0.164,0.912,0.574,0.859,0.562
EBC-1,0.238,0.216,0.206,0.17,,,,,,,,,,,0.546,0.506,0.558,0.623
EKVX,0.169,0.223,0.231,0.251,0.23,0.254,0.245,0.208,0.178,0.369,0.45,0.499,0.317,0.273,0.939,1.16,1.12,1.12
EMC-BAC-2,0.93,0.885,0.846,0.336,0.516,0.587,0.616,0.388,0.198,0.311,0.286,0.305,0.279,0.246,1.22,1.04,1.06,0.301
EPLC-272H,0.772,1.18,0.936,1.29,0.278,0.371,0.333,0.25,0.207,0.206,0.242,0.403,0.177,0.111,0.86,1.04,0.98,1.14
H3255,0.24,0.255,0.247,0.235,0.366,,0.352,0.369,0.311,0.673,,0.782,0.604,0.603,0.642,0.806,0.865,0.888
HARA,0.758,1.05,0.745,0.547,0.386,0.508,0.548,0.377,0.324,0.115,0.127,0.13,0.155,0.123,0.979,1.12,1.15,0.345
HCC-15,0.864,0.911,0.859,0.869,0.467,0.606,0.595,0.445,0.234,0.437,0.484,0.458,0.483,0.208,0.989,1.13,1.07,1.04
HCC-44,1.06,1.08,1.07,0.937,0.15,0.22,0.196,0.18,0.127,0.909,0.532,0.963,0.979,0.393,0.83,0.843,0.841,0.825
HCC-78,0.749,0.705,0.854,1.18,0.544,0.751,0.842,0.611,0.392,0.513,0.432,0.563,0.404,0.417,0.367,0.502,0.345,0.642

Cell Line,relative viability ([1]; first compound 0.0005 µM),relative viability ([1]; first compound 0.001581 µM),relative viability ([1]; first compound 0.005 µM),relative viability ([1]; first compound 0.01581 µM),relative viability ([2]; first compound 0.08 µM),relative viability ([2]; first compound 0.253 µM),relative viability ([2]; first compound 0.8 µM),relative viability ([2]; first compound 2.53 µM),relative viability ([2]; first compound 8 µM),relative viability ([3]; first compound 0.08 µM),relative viability ([3]; first compound 0.253 µM),relative viability ([3]; first compound 0.8 µM),relative viability ([3]; first compound 2.53 µM),relative viability ([3]; first compound 8 µM),relative viability ([4]; first compound 0.0005 µM),relative viability ([4]; first compound 0.001581 µM),relative viability ([4]; first compound 0.005 µM),relative viability ([4]; first compound 0.01581 µM)
IA-LM,1.02,0.771,0.664,0.876,,,,,,,,,,,0.746,0.807,0.872,0.491
LCLC-103H,,,,,0.327,0.345,0.419,0.317,0.314,0.524,0.495,0.569,0.503,0.376,1.11,1,1.07,1.04
LK-2,0.877,0.967,0.546,0.324,0.385,0.807,0.428,0.181,0.105,0.17,0.163,0.166,0.182,0.186,,,,
NCI-H358,0.359,0.634,0.533,0.451,0.298,0.3,0.309,0.151,0.115,0.107,0.116,0.081,0.109,0.0818,,,,
NCI-H441,,,,,0.829,0.872,1.05,0.44,0.309,0.676,0.72,0.635,0.524,0.265,,0.476,0.486,0.443
NCI-H522,,,,,0.595,0.595,0.619,0.553,0.583,0.467,0.527,0.562,0.582,0.433,,,,
NCI-H1299,0.956,0.954,0.955,1.05,,,,,,,,,,,1.02,1.02,1.04,1.04
NCI-H1395,0.885,1.12,0.977,1.23,0.432,0.463,0.482,0.394,0.345,0.714,0.77,0.734,0.647,0.519,,,,
NCI-H1563,1.1,1.07,0.844,0.862,0.662,0.664,0.682,0.511,0.445,,,,,,0.917,0.958,0.838,0.691
NCI-H1623,,,,,0.577,0.624,0.611,0.585,0.554,0.447,0.419,0.442,0.429,0.401,,,,
NCI-H1648,,,,,,,,,,,,0.498,0.608,0.639,,,,
NCI-H1703,1.39,1.22,0.845,0.402,,,,,,,,,,,0.403,0.382,0.422,0.196
NCI-H1792,0.837,0.987,0.838,0.932,,0.377,0.246,0.0941,0.13,,,,,,0.924,0.98,0.711,1
NCI-H1793,0.337,0.935,0.535,0.805,0.312,0.477,0.546,0.192,0.156,0.333,0.353,0.389,0.155,0.109,,,,
NCI-H1944,0.849,0.875,0.802,0.804,0.207,0.227,0.218,0.15,0.16,0.252,0.272,0.241,0.228,0.181,,,,
NCI-H2170,0.285,0.263,0.274,0.276,0.405,0.414,0.44,0.316,0.372,0.758,0.703,0.708,0.615,0.632,,,,
NCI-H2342,,,,,0.66,0.623,0.649,0.525,0.535,0.494,0.644,0.491,0.469,0.479,,,,
SK-MES-1,0.464,0.484,0.51,0.471,0.645,0.685,0.706,0.583,0.349,0.916,0.942,0.914,0.719,0.377,,,,
SW 900,,,,,0.53,0.662,0.792,0.189,0.215,0.49,0.584,0.459,0.515,0.44,,,,

# From the supplement of paper PMC10307832
